viability, Activity and inhibition data for 4 molecules are collected here from ChEMBL document CHEMBL4715915, “Identification of madangamine A as a novel lysosomotropic agent to inhibit autophagy” (2021).

The test system of experiment [1] is HeLa. Put plainly: Antiproliferative activity against human HeLa cells assessed as cell viability at 10 uM after 24 hrs by MTT assay relative to control. It counts as functional. To be noted: read-out: Activity.
The test system of experiment [2] is HeLa. The experiment can be described thus: Induction of autophagosome formation in human HeLa cells assessed as increase in LC3 puncta at 10 uM after 24 hrs by Alexa Fluor 488 staining based fluorescence microscopic analysis. In kind it is functional, cell-based.
Experiment [3] has as its system HeLa. The experiment can be described thus: Inhibition of autophagy in human HeLa cells assessed as increase in P62 protein level at 1 to 20 uM after 24 hrs by Western blot analysis. In kind it is functional, cell-based. Conditions: dose 1-20 µM.
A further experiment concerns HT-1080. Put plainly: Induction of autophagosome formation in HT-1080 cells assessed as increase in LC3 puncta at 10 uM after 24 hrs by Alexa Fluor 488 staining based fluorescence microscopic analysis. In kind it is functional, cell-based. Conditions: Homo sapiens.
Experiment [4] has as its system HeLa. The experiment can be described thus: Inhibition of autophagy in human HeLa cells assessed as increase in P62 protein level at 10 uM after 24 hrs in presence of Baf A1 by Western blot analysis. It counts as functional, cell-based.
The test system of experiment [5] is HeLa. The experiment can be described thus: Antiproliferative activity against human HeLa cells assessed as cell viability at 20 uM after 24 hrs by MTT assay relative to control. In kind it is functional. Conditions: read-out: Activity.
Experiment [6] deals with HeLa. Put plainly: Inhibition of autophagy in human HeLa cells assessed as increase in P62 protein level at 10 uM after 24 hrs in presence of chloroquine by Western blot analysis. In kind it is functional, cell-based.
The subject of experiment [7] is HeLa. Put plainly: Modulation of autophagy in human HeLa cells assessed as increase in LC3-2 protein level at 10 uM after 24 hrs in presence of chloroquine by Western blot analysis. It counts as functional, cell-based.
The test system of another experiment is SK-MEL-28. The experiment can be described thus: Induction of autophagosome formation in SK-MEL-28 cells assessed as increase in LC3 puncta at 10 uM after 24 hrs by Alexa Fluor 488 staining based fluorescence microscopic analysis. It counts as functional, cell-based. Conditions: Homo sapiens.
Experiment [8] deals with HeLa. The experiment can be described thus: Modulation of autophagy in human HeLa cells assessed as increase in LC3-2 protein level at 10 uM after 24 hrs in presence of Baf A1 by Western blot analysis. It counts as functional, cell-based.
Experiment [9] concerns HeLa. Put plainly: Inhibition of autophagy in human HeLa cells assessed as increase in lysosomal pH at 10 uM after 24 hrs by LysoTracker Red DND-99 staining based fluorescence microscopic method. In kind it is functional, cell-based.
Experiment [10] has as its system HeLa. Put plainly: Antiproliferative activity against human HeLa cells assessed as cell viability at 1 uM after 24 hrs by MTT assay relative to control. It counts as functional. To be noted: read-out: Activity.
The subject of experiment [11] is HeLa. The experiment can be described thus: Induction of autophagosome formation in human HeLa cells assessed as increase in LC3 puncta at 10 uM after 6 hrs in presence of rapamycin by Alexa Fluor 488 staining based fluorescence microscopic analysis. In kind it is functional, cell-based.
The test system of experiment [12] is HeLa. Put plainly: Inhibition of autophagy in human HeLa cells assessed as decrease in cathepsin B at 10 nM after 24 hrs by immunoblot analysis. In kind it is functional, cell-based.
The test system of experiment [13] is HeLa. The experiment can be described thus: Induction of autophagosome formation in human HeLa cells assessed as increase in LC3 puncta at 10 uM after 24 hrs in presence of Baf A1 by Alexa Fluor 488 staining based fluorescence microscopic analysis. In kind it is functional, cell-based.
The test system of experiment [14] is HeLa. Put plainly: Modulation of autophagy in human HeLa cells assessed as increase in LC3-2 protein level at 1 to 20 uM after 24 hrs by Western blot analysis. In kind it is functional, cell-based. To be noted: dose 1-20 µM.
Experiment [15] concerns HeLa. Put plainly: Inhibition of autophagy in human HeLa cells assessed as increase in lysosomal pH at 10 nM after 24 hrs by LysoTracker Red DND-99 staining based fluorescence microscopic method. It counts as functional, cell-based.
For experiment [16], the system named is HeLa. Put plainly: Induction of autophagosome formation in human HeLa cells assessed as increase in LC3 puncta at 10 nM after 24 hrs by Alexa Fluor 488 staining based fluorescence microscopic analysis. It counts as functional, cell-based.
Experiment [17] has as its system HeLa. Put plainly: Inhibition of autophagy in human HeLa cells assessed as increase in P62 protein level at 10 nM after 24 hrs by Western blot analysis. In kind it is functional, cell-based.
Experiment [18] has as its system HeLa. The experiment can be described thus: Induction of autophagy in human HeLa cells assessed as decrease in P62 protein level at 1 uM after 24 hrs by Western blot analysis. It counts as functional, cell-based.

Calls of active or inactive are those of the source. No cut-off for these calls is given here.

`C1=C\C/C=C\CC[C@@]23CN(CC/C=C\C/1)C[C@H]1C/C4=C/C/C=C\CCCCN(C2)[C@@H]4C[C@H]13`: the viability at 10 µM with HeLa [1] worked out at 2.9%. Besides, the outcome with HeLa [2], in the experiment on HT-1080, in the experiment on SK-MEL-28, in the experiment with HeLa [13] and in the experiment on HeLa [14] was Active. Moreover, the inhibition entry in the experiment on HeLa [3], in the experiment on HeLa [4], in the experiment with HeLa [6], in the experiment on HeLa [7], in the experiment on HeLa [8] and with HeLa [9] was “Active” each time. Moreover, the inhibition entry in the experiment on HeLa [12] is “Active”. Further, the viability at 20 µM in the experiment on HeLa [5] is 1.4%. For the same molecule, the viability at 1 µM in the experiment on HeLa [10] was 95.2%. Moreover, the outcome in the experiment on HeLa [11] was inactive.
Turning to `CO/C1=C\C(C)=C\[C@@H](C)[C@@H](O)[C@@H](C)C/C(C)=C/C=C/[C@H](OC)[C@@H]([C@@H](C)[C@@H](O)[C@H](C)[C@@]2(O)C[C@@H](O)[C@H](C)[C@@H](C(C)C)O2)OC1=O`, in the experiment with HeLa [15], the inhibition entry was “inactive”. The result with HeLa [16] was Active. Besides, the inhibition result in the experiment on HeLa [17] was “Active”.
As for `CCN(CC)CCCC(C)Nc1ccnc2cc(Cl)ccc12` (stereo unspecified), in the experiment on HeLa [9], the inhibition result is “Active”.
As for `CO[C@H]1C[C@@H]2CC[C@@H](C)[C@@](O)(O2)C(=O)C(=O)N2CCCC[C@H]2C(=O)O[C@H]([C@H](C)C[C@@H]2CC[C@@H](O)[C@H](OC)C2)CC(=O)[C@H](C)/C=C(\C)[C@@H](O)[C@@H](OC)C(=O)[C@H](C)C[C@H](C)/C=C/C=C/C=C/1C`, the outcome with HeLa [18] was Active.
